We go through five compounds from patent US10646572B2, “Pharmaceutical compositions with enhanced stability” (Foresee Pharmaceuticals Co., Ltd., priority 2006, dated 2020).

Counter-ions that a name gives are not always drawn. Like-named read-outs stand apart in the source and are kept apart here.

The format of data set [1] is physicochemical. The source says: (§1) The injectable compositions were filled into 1.2 mlL polypropylene syringes with luer-lock tips. […] The injectable composition was sampled at pre-defined time points.
Data set [2] can be described thus: Molecular weight of PLGA in PLGA/DMSO injectable compositions (GPC). Type of data set: physicochemical. Conditions: DMSO, 4° C., after 16 months.
Description: as §1

For data set [3] the following is noted: NMP.
Description: Poly(DL-lactide-co-glycolide) (PLGA) of an 85/15 ratio of lactide to glycolide (DLPLG85/15, IV: 0.28) with a lauryl ester end group was dissolved in N- methyl-2-pyrrolidone (NMP) to give a 50% solution by weight. The leuprolide salts were mixed with the PLGA solution in NMP to give a uniform injectable composition at ratios shown in the Table 1. The injectable compositions were filled into 1.2 mL polypropylene syringes with luer-lock tips. Then the pre-filled syringes were sealed using luer-lock caps. The capped syringes were packaged in a container and sealed in a plastic bag under vacuum and then stored at 4° C. and room temperature (˜22° C.) for up to 18 months. The injectable composition was sampled at 24 h, 1, 2, 3, 6, 12, and 18 month time points. […] Molecular weight of the polymer was determined by gel permeation chromatography (GPC) using polystyrene standards with known molecular weights.
A further data set is described as follows: in vivo. Also noted: species or system rats. Conditions: rat, sc. The protocol: Each formulation was then injected into the rats subcutaneously at a volume of about 100 μL with 6 animals per group. The serum samples were collected from each animal at 3 hour, 1, 3, 7, 14, 28, 42, 56, and 70 days post injection. The serum samples were analyzed for leuprolide concentration by ELISA using the kits available from Peninsula Laboratories Inc. The leuprolide remaining in the implants at various times was analyzed by HPLC.

The nature of data set [4]: In vitro release of leuprolide from injectable polymeric formulations (Example 10). Type of data set: physicochemical. As to conditions: 6% by weight in PLGA/NMP, PBS pH 7.4, 37° C., FIG. 3. Here is the method:
Three polymer vehicle solutions were prepared as following: PLG 85/15 (0.28 IV) with a lauryl ester end group was dissolved in NMP at 50% and 55% by weight, and RG503 (0.42 IV) with a carboxylic acid end group was dissolved in NMP at 50% by weight. Then suitable amount of leuprolide hydrochloride (LAHCl) and leuprolide mesylate (LAMS) were mixed with the polymer solutions at 6% by weight each. The formulations were thoroughly mixed to obtain uniform formulations.
An aliquot of the formulation suspension (about 100 mg) was injected into in 3 mL phosphate buffer saline solution at pH 7.4 with 0.1% sodium azide at 37° C. The receiving fluid was replaced at selected time points with fresh buffer solution, and the removed buffer solution diluted 2-fold with phosphate buffer at pH 7.4 was analyzed for drug concentration by HPLC. The amount released at each time point was calculated.

For data set [5] the following is noted: cited from earlier work.
Data set [6] is described as follows: Effect of Vitamin E TPGS on in vitro release of leuprolide (Example 11). It counts as physicochemical. Conditions: LAHCl 15% in PLA 100DLPL/NMP, PBS pH 7.4, 37° C., FIG. 4. Here is the method:
The polymer vehicle solutions with and without excipients were prepared as following: PLA 100DLPL (0.26 IV, Lakeshore, Ala.) with a lauryl ester end group and Vitamin E TPGS were dissolved in NMP at suitable amount according to the Table 7. Then suitable amount of leuprolide hydrochloride (LAHCl) was mixed with the polymer solutions at 15% by weight. The formulations were thoroughly mixed to obtain uniform formulations.
An aliquot of the formulation suspension (about 100 mg) was injected into in 3 mL phosphate buffer saline solution at pH 7.4 with 0.1% sodium azide at 37° C. The receiving fluid was replaced at selected time points with fresh buffer solution, and the removed buffer solution diluted 10-fold with PBS at pH 7.4 was analyzed for drug concentration by HPLC. The amount released at each time point was calculated.

As to `CCNC(=O)[C@@H]1CCCN1C(=O)[C@H](CCCNC(=N)N)NC(=O)[C@H](CC(C)C)NC(=O)[C@@H](CC(C)C)NC(=O)[C@H](Cc1ccc(O)cc1)NC(=O)[C@H](CO)NC(=O)[C@H](Cc1c[nH]c2ccccc12)NC(=O)[C@H](Cc1c[nH]cn1)NC(=O)[C@@H]1CCC(=O)N1` [leuprolide acetate, Leuprolide acetate, reference compound], in data set [1], the leuprolide degraded entry is listed as “Up to 20%”. Moreover, the “decrease of molecular weight of PLGA comparing to blank control” value is recorded as “about 40%” in data set [2] and “more than 10%” in data set [3] (4° C., after 6 months).
As usually defined, the Cmax is the highest concentration seen after dosing. For `CCNC(=O)[C@@H]1CCCN1C(=O)[C@H](CCCNC(=N)N)NC(=O)[C@H](CC(C)C)NC(=O)[C@@H](CC(C)C)NC(=O)[C@H](Cc1ccc(O)cc1)NC(=O)[C@H](CO)NC(=O)[C@H](Cc1c[nH]c2ccccc12)NC(=O)[C@H](Cc1c[nH]cn1)NC(=O)[C@@H]1CCC(=O)N1` [leuprolide hydrochloride, Leuprolide Hydrochloride], in data set [1], the leuprolide degraded result was “less than 5%”. Also, the “time at which Cmax was reached” value in the data set “in vivo” came out at 3 h. In the data set “in vivo” (Cmax (serum leuprolide)), this compound yielded a maximum concentration (Cmax) of 662 ng/mL. The “leuprolide release, LAHCl versus LAMS” value in data set [4] is “no significant difference”. Further, the “molecular weight of PLGA versus control” value in data set [2] is reported as “comparable to that of the control”. Also, the “molecular weight of PLGA versus blank control” value in data set [3] (both 4° C. and RT, after 12 months) is “the same as that of the blank control”.
As to `CCNC(=O)[C@@H]1CCCN1C(=O)[C@H](CCCNC(=N)N)NC(=O)[C@H](CC(C)C)NC(=O)[C@@H](CC(C)C)NC(=O)[C@H](Cc1ccc(O)cc1)NC(=O)[C@H](CO)NC(=O)[C@H](Cc1c[nH]c2ccccc12)NC(=O)[C@H](Cc1c[nH]cn1)NC(=O)[C@@H]1CCC(=O)N1` [leuprolide mesylate, Leuprolide Mesylate], the leuprolide degraded entry in data set [1] is on record as “less than 5%”. For the same compound, in the data set “in vivo”, the “Cmax (serum leuprolide)” value is 370.6 ng/mL and the “time at which Cmax was reached” value is 3 h.
Consider `C[C@@H](O)[C@@H]1NC(=O)[C@H](CCCCN)NC(=O)[C@@H](Cc2c[nH]c3ccccc23)NC(=O)[C@H](Cc2ccccc2)NC(=O)[C@@H](NC(=O)[C@H](N)Cc2ccccc2)CSSC[C@@H](C(=O)N[C@H](CO)[C@@H](C)O)NC1=O` [octreotide acetate], for which the octreotide acylated entry in data set [5] (combined with polylactide-co-glicolide solution in NMP, within 5 hours) is given as “more than 40%”. Besides, in data set [5] (polylactide-co-glicolide solution in NMP, within the same time period (5 hours)), the “molecular weight of the polymer” value is on record as “decreased significantly”.
For Vitamin E TPGS, in data set [6], the “effect on initial burst” value is “did not affect the initial burst” and the “effect on release rate of leuprolide at later stages” value is listed as “seemed to reduce the release rate of leuprolide at later stages”.
